Measurements reported in US20050208496A1, “Methods of testing for bronchial asthma or chronic obstructive pulmonary disease” (Genox Research, Inc., priority 2002, published 2005).
Read-outs that look alike come from different tables or passages of the source.

Tested on: respiratory epithelial cells
Settings: IL-13 vs no stimulation

## IL-13: human IL-13 (Peprotech, Inc.) added to the medium at 50 ng/mL to stimulate respiratory epithelial cells
Lot 1 Day 3 IMM
  BENE (33331_at) expression change: −2.8
  CRA (1230_g_at) expression change: −2.3
  CTSL2 (40717_at) expression change: −2.2
  DUSP1 (1005_at) expression change: −2.4
  IGFBP3 (37319_at) expression change: −2
  IGFBP6 (1736_at) expression change: −2.8
  MMP9 (31859_at) expression change: −7.3
  MMP10 (1006_at) expression change: −3.4
  MSMB (32149_at) expression change: −3.7
  NDRG1 (36933_at) expression change: −2.3
  NOTCH3 (38750_at) expression change: −3.5
  PFTK1 (36502_at) expression change: −2.6
  PSCA (33792_at) expression change: −3.9
  SERPINA3 (33825_at) expression change: −3.8
  SERPINE1 (672_at) expression change: −7.7
  SERPINE1 (38125_at) expression change: −4.2
  TSPAN-5 (40990_at) expression change: −2.8
Lot 1 Day 7 AI
  AGR2 (38827_at) expression change: −2.7
  AKR1B10 (37482_at) expression change: −7.5
  AKR1C3 (37399_at) expression change: −4
  ANXA10 (32349_at) expression change: −2.5
  APM2 (32527_at) expression change: −3.8
  AREG (34898_at) expression change: −4.8
  BCAS1 (37821_at) expression change: −3.7
  BENE (33331_at) expression change: −7.3
  C4.4A (41641_at) expression change: −2.5
  CRA (1230_g_at) expression change: −2
  DEFB2 (32464_at) expression change: −4.3
  ECM1 (37600_at) expression change: −4.7
  EPHA1 (1108_s_at) expression change: −3.2
  ETFB (36881_at) expression change: −2
  FABP5 (39799_at) expression change: −4.2
  GABRE (34280_at) expression change: −2
  GPNMB (38379_at) expression change: 3.6
  HLA-DPB1 (38095_i_at) expression change: −4.4
  HLA-DPB1 (38096_f_at) expression change: −2.6
  IGFBP3 (1586_at) expression change: −2.4
  IGFBP3 (37319_at) expression change: −2.7
  IGFBP6 (1736_at) expression change: −7.7
  IMPA2 (36496_at) expression change: −2
  MMP9 (31859_at) expression change: −10.9
  MN1 (37283_at) expression change: −3.2
  MSMB (32149_at) expression change: −11.7
  NCALD (38803_at) expression change: −2.8
  NDRG1 (36933_at) expression change: −3.6
  NOTCH3 (38750_at) expression change: −4.6
  PSCA (33792_at) expression change: −5.8
  PTK2B (33804_at) expression change: −6.4
  PTPRZ1 (1364_at) expression change: −3.7
  RARRES1 (33505_at) expression change: −3.3
  RDC1 (34288_at) expression change: −5.3
  RTP801 (39827_at) expression change: −2
  S100A8 (41096_at) expression change: −6.2
  SERPINA3 (33825_at) expression change: −14.1
  SERPINB1 (33305_at) expression change: −2.3
  SERPINB5 (862_at) expression change: −2.2
  SERPINE1 (672_at) expression change: −7.8
  SERPINE1 (38125_at) expression change: −18.3
  STK39 (39120_at) expression change: −2.9
  TSPAN-5 (40990_at) expression change: −3.6
  VRP (38223_at) expression change: −2.5
  c-fos (1916_s_at) expression change: −2.6
Lot 1 Day 7 IMM
  AKR1B10 (37482_at) expression change: −6.7
  AKR1C3 (37399_at) expression change: −2.3
  APM2 (32527_at) expression change: −6.2
  AREG (34898_at) expression change: −5.2
  BENE (33331_at) expression change: −4.7
  ECM1 (37600_at) expression change: −18.4
  FABP5 (39799_at) expression change: −3.7
  GPNMB (38379_at) expression change: 4.9
  IGFBP3 (1586_at) expression change: −3.1
  IGFBP3 (37319_at) expression change: −3.1
  IGFBP6 (1736_at) expression change: −5.4
  MMP9 (31859_at) expression change: −16
  NDRG1 (36933_at) expression change: −2.4
  NOTCH3 (38750_at) expression change: −2.7
  PFTK1 (36502_at) expression change: −3.2
  PTK2B (33804_at) expression change: −4.1
  RARRES1 (1042_at) expression change: −3.5
  RARRES1 (33505_at) expression change: −2.7
  RDC1 (34288_at) expression change: −2.2
  SEC14L2 (32817_at) expression change: −2.9
  SERPINA3 (33825_at) expression change: −5.9
  SERPINB1 (33305_at) expression change: −2.1
  SERPINB5 (862_at) expression change: −2.5
  SERPINE1 (672_at) expression change: −31.3
  SERPINE1 (38125_at) expression change: −20.1
  STK39 (39120_at) expression change: −2
  TSPAN-5 (40990_at) expression change: −2.8
  c-fos (1915_s_at) expression change: −4.3
  c-fos (1916_s_at) expression change: −4.7
Lot 2 Day 3 AI
  AKR1B10 (37482_at) expression change: −7.1
  AKR1C3 (37399_at) expression change: −2.6
  ANXA10 (32349_at) expression change: −7.5
  APM2 (32527_at) expression change: −2.7
  AREG (34898_at) expression change: −14.6
  BCAS1 (37821_at) expression change: −4.6
  BDKRB2 (39310_at) expression change: −2.4
  BENE (33331_at) expression change: −4.8
  CRA (1230_g_at) expression change: −3.4
  CTSL2 (40717_at) expression change: −3.2
  DUSP1 (1005_at) expression change: −4.3
  EPHA1 (1108_s_at) expression change: −2.8
  FABP5 (39799_at) expression change: −3
  GPNMB (38379_at) expression change: −2.2
  IGFBP3 (1586_at) expression change: −2.9
  IGFBP3 (37319_at) expression change: −3
